Results published in ChEMBL document CHEMBL1255382, “Genetic mapping of targets mediating differential chemical phenotypes in Plasmodium falciparum” (Nat Chem Biol, 2009).
Structures can show the parent of a compound that is named as a salt.

What was measured:
Plasmodium falciparum [1] = test: microbe, parasite or virus in culture; conditions: HB3, 72 h
Description: Antiplasmodial activity against Plasmodium falciparum HB3 after 72 hrs by SYBR green assay

Plasmodium falciparum [2] = test: microbe, parasite or virus in culture; conditions: D10, 72 h
Description: Antiplasmodial activity against Plasmodium falciparum D10 after 72 hrs by SYBR green assay

Plasmodium falciparum [3] = test: microbe, parasite or virus in culture; type: functional, organism-based, W2; conditions: for IC50: Plasmodium falciparum, W2, 72 h
Description: Antiplasmodial activity against Plasmodium falciparum W2 after 72 hrs by SYBR green assay

Plasmodium falciparum [4] = test: microbe, parasite or virus in culture; type: functional, organism-based; conditions: 3D7, 72 h
Description: Antiplasmodial activity against Plasmodium falciparum 3D7 after 72 hrs by SYBR green assay

Plasmodium falciparum [5] = test: microbe, parasite or virus in culture; type: functional, organism-based; conditions: 7G8, 72 h
Description: Antiplasmodial activity against Plasmodium falciparum 7G8 after 72 hrs by SYBR green assay

Plasmodium falciparum [6] = test: microbe, parasite or virus in culture; conditions: Dd2, 72 h
Description: Antiplasmodial activity against Plasmodium falciparum Dd2 after 72 hrs by SYBR green assay

Plasmodium falciparum [7] = test: microbe, parasite or virus in culture; type: functional, organism-based; conditions: GB4, 72 h
Description: Antiplasmodial activity against Plasmodium falciparum GB4 after 72 hrs by SYBR green assay

Plasmodium falciparum [8] = test: Antiplasmodial activity against Plasmodium falciparum CDY harboring modified mdr1 protein after 72 hrs by SYBR green assay in presence of 0.8 uM P-gp inhibitor verapamil; type: functional, organism-based; conditions: MDR1, 72 h
Plasmodium falciparum [9] = test: microbe, parasite or virus in culture; conditions: NF10, 72 h
Description: Antiplasmodial activity against Plasmodium falciparum NF10 after 72 hrs by SYBR green assay

Plasmodium falciparum [10] = test: microbe, parasite or virus in culture; conditions: KA6, 72 h
Description: Antiplasmodial activity against Plasmodium falciparum KA6 after 72 hrs by SYBR green assay

Plasmodium falciparum [11] = test: microbe, parasite or virus in culture; conditions: DAN, 72 h
Description: Antiplasmodial activity against Plasmodium falciparum DAN after 72 hrs by SYBR green assay

Plasmodium falciparum [12] = test: microbe, parasite or virus in culture; conditions: Dd2, 72 h; remark: listed apart in the source
Description: Antiplasmodial activity against Plasmodium falciparum Dd2 harboring polymorphic DHFR after 72 hrs by SYBR green assay

Plasmodium falciparum [13] = test: microbe, parasite or virus in culture; conditions: XF12, 72 h
Description: (§1) Antiplasmodial activity against Plasmodium falciparum XF12 after 72 hrs by SYBR green assay

Plasmodium falciparum [14] = test: microbe, parasite or virus in culture; conditions: JB12, 72 h
Description: Antiplasmodial activity against Plasmodium falciparum JB12 after 72 hrs by SYBR green assay

Plasmodium falciparum [15] = test: microbe, parasite or virus in culture; conditions: NIC, 72 h
Description: Antiplasmodial activity against Plasmodium falciparum NIC after 72 hrs by SYBR green assay

Plasmodium falciparum [16] = test: microbe, parasite or virus in culture; conditions: JH6, 72 h
Description: Antiplasmodial activity against Plasmodium falciparum JH6 after 72 hrs by SYBR green assay

Plasmodium falciparum [17] = test: microbe, parasite or virus in culture; conditions: JF11, 72 h
Description: Antiplasmodial activity against Plasmodium falciparum JF11 after 72 hrs by SYBR green assay

Plasmodium falciparum [18] = test: microbe, parasite or virus in culture; conditions: JC3, 72 h
Description: Antiplasmodial activity against Plasmodium falciparum JC3 after 72 hrs by SYBR green assay

Plasmodium falciparum [19] = test: microbe, parasite or virus in culture; conditions: JC9, 72 h
Description: Antiplasmodial activity against Plasmodium falciparum JC9 after 72 hrs by SYBR green assay

Plasmodium falciparum [20] = test: microbe, parasite or virus in culture; conditions: W2, 72 h
Description: Antiplasmodial activity against Plasmodium falciparum W2 harboring polymorphic DHFR after 72 hrs by SYBR green assay

Plasmodium falciparum [21] = test: microbe, parasite or virus in culture; conditions: KH7, 72 h
Description: Antiplasmodial activity against Plasmodium falciparum KH7 after 72 hrs by SYBR green assay

Plasmodium falciparum [22] = test: microbe, parasite or virus in culture; conditions: AUD, 72 h
Description: Antiplasmodial activity against Plasmodium falciparum AUD after 72 hrs by SYBR green assay

Plasmodium falciparum [23] = test: microbe, parasite or virus in culture; conditions: 7G8, 72 h
Description: Antiplasmodial activity against Plasmodium falciparum 7G8 harboring polymorphic DHFR after 72 hrs by SYBR green assay

Plasmodium falciparum [24] = test: microbe, parasite or virus in culture; conditions: WC4, 72 h
Description: Antiplasmodial activity against Plasmodium falciparum WC4 after 72 hrs by SYBR green assay

Plasmodium falciparum [25] = test: microbe, parasite or virus in culture; conditions: HB3 pDT, 72 h
Description: Antiplasmodial activity against transgenic Plasmodium falciparum HB3 pDT harboring polymorphic DHFR after 72 hrs by SYBR green assay

Plasmodium falciparum [26] = test: microbe, parasite or virus in culture; conditions: WF12, 72 h
Description: Antiplasmodial activity against Plasmodium falciparum WF12 after 72 hrs by SYBR green assay

Plasmodium falciparum [27] = test: microbe, parasite or virus in culture; conditions: LC12, 72 h
Description: Antiplasmodial activity against Plasmodium falciparum LC12 after 72 hrs by SYBR green assay

Plasmodium falciparum [28] = test: microbe, parasite or virus in culture; conditions: WE2, 72 h
Description: Antiplasmodial activity against Plasmodium falciparum WE2 after 72 hrs by SYBR green assay

Plasmodium falciparum [29] = test: microbe, parasite or virus in culture; conditions: KB8, 72 h
Description: Antiplasmodial activity against Plasmodium falciparum KB8 after 72 hrs by SYBR green assay

Plasmodium falciparum [30] = test: microbe, parasite or virus in culture; conditions: JON, 72 h
Description: Antiplasmodial activity against Plasmodium falciparum JON after 72 hrs by SYBR green assay

Plasmodium falciparum [31] = test: microbe, parasite or virus in culture; conditions: HB3, 72 h; remark: listed apart in the source
Description: Antiplasmodial activity against Plasmodium falciparum HB3 harboring polymorphic DHFR after 72 hrs by SYBR green assay

Plasmodium falciparum [32] = test: microbe, parasite or virus in culture; conditions: XG10, 72 h
Description: Antiplasmodial activity against Plasmodium falciparum XG10 after 72 hrs by SYBR green assay

Plasmodium falciparum [33] = test: microbe, parasite or virus in culture; conditions: LA10, 72 h
Description: Antiplasmodial activity against Plasmodium falciparum LA10 after 72 hrs by SYBR green assay

Plasmodium falciparum [34] = test: microbe, parasite or virus in culture; conditions: D10, 72 h; remark: listed apart in the source
Description: Antiplasmodial activity against Plasmodium falciparum D10 harboring polymorphic DHFR after 72 hrs by SYBR green assay

Plasmodium falciparum [35] = test: microbe, parasite or virus in culture; conditions: TF1, 72 h
Description: Antiplasmodial activity against Plasmodium falciparum TF1 after 72 hrs by SYBR green assay

Plasmodium falciparum [36] = test: microbe, parasite or virus in culture; conditions: Dd2, 72 h; remark: listed apart in the source
Description: Antiplasmodial activity against transgenic Plasmodium falciparum Dd2 pDT harboring polymorphic DHFR after 72 hrs by SYBR green assay

Plasmodium falciparum [37] = test: microbe, parasite or virus in culture; conditions: KC5, 72 h
Description: Antiplasmodial activity against Plasmodium falciparum KC5 after 72 hrs by SYBR green assay

Plasmodium falciparum [38] = test: microbe, parasite or virus in culture; conditions: D2, 72 h
Description: Antiplasmodial activity against Plasmodium falciparum D2 after 72 hrs by SYBR green assay

Plasmodium falciparum [39] = test: microbe, parasite or virus in culture; conditions: GB4, 72 h
Description: Antiplasmodial activity against Plasmodium falciparum GB4 harboring polymorphic DHFR after 72 hrs by SYBR green assay

Plasmodium falciparum [40] = test: microbe, parasite or virus in culture; conditions: AL2, 72 h
Description: Antiplasmodial activity against Plasmodium falciparum AL2 after 72 hrs by SYBR green assay

Plasmodium falciparum [41] = test: microbe, parasite or virus in culture; conditions: KC2, 72 h
Description: Antiplasmodial activity against Plasmodium falciparum KC2 after 72 hrs by SYBR green assay

Plasmodium falciparum [42] = test: microbe, parasite or virus in culture; conditions: XE7, 72 h
Description: Antiplasmodial activity against Plasmodium falciparum XE7 after 72 hrs by SYBR green assay

Plasmodium falciparum [43] = test: microbe, parasite or virus in culture; conditions: DEV, 72 h
Description: Antiplasmodial activity against Plasmodium falciparum DEV after 72 hrs by SYBR green assay

Plasmodium falciparum [44] = test: microbe, parasite or virus in culture; conditions: XD8, 72 h
Description: Antiplasmodial activity against Plasmodium falciparum XD8 after 72 hrs by SYBR green assay

Plasmodium falciparum [45] = test: microbe, parasite or virus in culture; conditions: XB3, 72 h
Description: Antiplasmodial activity against Plasmodium falciparum XB3 after 72 hrs by SYBR green assay

Plasmodium falciparum [46] = test: microbe, parasite or virus in culture; conditions: QF5, 72 h
Description: Antiplasmodial activity against Plasmodium falciparum QF5 after 72 hrs by SYBR green assay

Plasmodium falciparum [47] = test: microbe, parasite or virus in culture; conditions: JB8, 72 h
Description: Antiplasmodial activity against Plasmodium falciparum JB8 after 72 hrs by SYBR green assay

Plasmodium falciparum [48] = system: Plasmodium falciparum
Description: as §1

Question: How did the IC50 (Plasmodium falciparum [1]) turn out when `Cc1cc(N)c2ccccc2[n+]1CCCCCCCCCC[n+]1c(C)cc(N)c2ccccc21` [DEQUALINIUM CHLORIDE] was run?
Answer: 0.1 µM

Question: What about the IC50 (Plasmodium falciparum [2]) of the same compound?
Answer: 0.1 µM

Question: For `CCCNC[C@H](O)COc1ccccc1C(=O)CCc1ccccc1`, which IC50 (Plasmodium falciparum [3]) is on record?
Answer: 0.28 µM

Question: How did the IC50 (Plasmodium falciparum [4]) turn out when `Nc1ccc(-c2nc3ccc(-c4nc5ccc(N)cc5[nH]4)cc3[nH]2)cc1` was run?
Answer: 0.28 µM

Question: And the IC50 (Plasmodium falciparum [5])?
Answer: 0.52 µM

Question: What about the IC50 (Plasmodium falciparum [1]) of the same compound?
Answer: 0.83 µM

Question: And the IC50 (Plasmodium falciparum [6])?
Answer: 1 µM

Question: And the IC50 (Plasmodium falciparum [7])?
Answer: 0.74 µM

Question: And the IC50 (Plasmodium falciparum [3])?
Answer: 0.22 µM

Question: And the IC50 (Plasmodium falciparum [2])?
Answer: 0.74 µM

Question: For `CN1C[C@H](C(=O)N[C@]2(C)O[C@@]3(O)[C@@H]4CCCN4C(=O)[C@H](Cc4ccccc4)N3C2=O)C[C@@H]2c3cccc4[nH]cc(c34)C[C@H]21` (stereo in doubt; 1) [DIHYDROERGOTAMINE MESYLATE], which IC50 (Plasmodium falciparum [8]) is on record?
Answer: 0.022 µM

Question: For `Nc1nc(N)c2nc(-c3ccccc3)c(N)nc2n1`, which IC50 (Plasmodium falciparum [9]) is on record?
Answer: 75.1 µM

Question: What about the IC50 (Plasmodium falciparum [10]) of the same compound?
Answer: 5.19 µM

Question: And the IC50 (Plasmodium falciparum [11])?
Answer: 69.5 µM

Question: And the IC50 (Plasmodium falciparum [12])?
Answer: 141 µM

Question: What about the IC50 (Plasmodium falciparum [13]) of the same compound?
Answer: 17.1 µM

Question: And the IC50 (Plasmodium falciparum [14])?
Answer: 65.1 µM

Question: What about the IC50 (Plasmodium falciparum [15]) of the same compound?
Answer: 11.2 µM

Question: And the IC50 (Plasmodium falciparum [16])?
Answer: 64.8 µM

Question: And the IC50 (Plasmodium falciparum [17])?
Answer: 5.11 µM

Question: And the IC50 (Plasmodium falciparum [18])?
Answer: 4.26 µM

Question: What about the IC50 (Plasmodium falciparum [19]) of the same compound?
Answer: 43.7 µM

Question: And the IC50 (Plasmodium falciparum [20])?
Answer: 95 µM

Question: What about the IC50 (Plasmodium falciparum [21]) of the same compound?
Answer: 15 µM

Question: What about the IC50 (Plasmodium falciparum [22]) of the same compound?
Answer: 54.2 µM

Question: And the IC50 (Plasmodium falciparum [23])?
Answer: 154 µM

Question: And the IC50 (Plasmodium falciparum [24])?
Answer: 52.5 µM

Question: What about the IC50 (Plasmodium falciparum [25]) of the same compound?
Answer: 95 µM

Question: And the IC50 (Plasmodium falciparum [5])?
Answer: 51.7 µM

Question: And the IC50 (Plasmodium falciparum [26])?
Answer: 5.83 µM

Question: What about the IC50 (Plasmodium falciparum [27]) of the same compound?
Answer: 50.1 µM

Question: And the IC50 (Plasmodium falciparum [28])?
Answer: 44.6 µM

Question: What about the IC50 (Plasmodium falciparum [29]) of the same compound?
Answer: 56.3 µM

Question: What about the IC50 (Plasmodium falciparum [30]) of the same compound?
Answer: 3.29 µM

Question: And the IC50 (Plasmodium falciparum [31])?
Answer: 176 µM

Question: What about the IC50 (Plasmodium falciparum [32]) of the same compound?
Answer: 8.13 µM

Question: And the IC50 (Plasmodium falciparum [33])?
Answer: 5.59 µM

Question: And the IC50 (Plasmodium falciparum [34])?
Answer: 70 µM

Question: And the IC50 (Plasmodium falciparum [35])?
Answer: 8.82 µM

Question: What about the IC50 (Plasmodium falciparum [36]) of the same compound?
Answer: 4 µM

Question: And the IC50 (Plasmodium falciparum [37])?
Answer: 73.5 µM

Question: What about the IC50 (Plasmodium falciparum [38]) of the same compound?
Answer: 22.2 µM

Question: What about the IC50 (Plasmodium falciparum [39]) of the same compound?
Answer: 5.3 µM

Question: And the IC50 (Plasmodium falciparum [40])?
Answer: 81.8 µM

Question: What about the IC50 (Plasmodium falciparum [41]) of the same compound?
Answer: 60.4 µM

Question: And the IC50 (Plasmodium falciparum [42])?
Answer: 18.1 µM

Question: What about the IC50 (Plasmodium falciparum [43]) of the same compound?
Answer: 60.5 µM

Question: What about the IC50 (Plasmodium falciparum [44]) of the same compound?
Answer: 59.8 µM

Question: What about the IC50 (Plasmodium falciparum [45]) of the same compound?
Answer: 57 µM

Question: And the IC50 (Plasmodium falciparum [46])?
Answer: 3.54 µM

Question: What about the IC50 (Plasmodium falciparum [47]) of the same compound?
Answer: 49.4 µM

Question: And the IC50 (Plasmodium falciparum [48])?
Answer: 17.1 µM

Question: How did the pIC25 (Plasmodium falciparum [3]) turn out when `CCN(CC)CCNC(=O)c1cc(Cl)c(N)cc1OC.Cl` was run?
Answer: 4.9

Question: With `COc1cc(Cc2cnc(N)nc2N)cc(OC)c1OC` [TRIMETHOPRIM] as the compound, how does the IC50 (Plasmodium falciparum [12]) read?
Answer: 169 µM

Question: And the IC50 (Plasmodium falciparum [23])?
Answer: 194 µM

Question: What about the IC50 (Plasmodium falciparum [25]) of the same compound?
Answer: 117 µM

Question: And the IC50 (Plasmodium falciparum [31])?
Answer: 158 µM

Question: And the IC50 (Plasmodium falciparum [39])?
Answer: 4.1 µM

Question: How did the IC50 (Plasmodium falciparum [4]) turn out when `CC[C@@]1(O)C(=O)OCc2c1cc1n(c2=O)Cc2cc3ccccc3nc2-1` [CAMPTOTHECIN] was run?
Answer: 0.83 µM

Question: What about the IC50 (Plasmodium falciparum [5]) of the same compound?
Answer: 1.41 µM

Question: What about the IC50 (Plasmodium falciparum [1]) of the same compound?
Answer: 0.89 µM

Question: What about the IC50 (Plasmodium falciparum [6]) of the same compound?
Answer: 1.32 µM

Question: And the IC50 (Plasmodium falciparum [7])?
Answer: 0.89 µM

Question: And the IC50 (Plasmodium falciparum [3])?
Answer: 0.56 µM

Question: And the IC50 (Plasmodium falciparum [2])?
Answer: 1.12 µM
